Measured values published in patent US20020103107A1, “Screening assay for anti-thrombotic/anti-platelet activity” (priority 2000, published 2002).

How the values were obtained:
GP Ib = assay: Platelet aggregation via the GP Ib pathway (α-thrombin with PAR-1 blocked / polymerizing fibrin); type: cell-based, human
Method: This antibody is known to selectively bind to the thrombin binding site.
The presence of three distinct thrombin receptors on human platelets was shown in experiments with combinations of inhibitors and PAR-4 desensitization. Platelets treated with SCH203099 (7.5 μM) plus ATAP-2 (50 μg/ml) have the PAR-1 receptor blocked at two levels, the tethered ligand and the PAR-1 receptor site for the tethered ligand. […] The delay in aggregation can be explained by the time required for the generation of polymerizing fibrin which would participate in platelet aggregation. This alternative α-thrombin pathway would be obscured normally by the rapid acting PAR-1 pathway.
(§1) AEBSF blocks the catalytic site, but not the GP Ib-binding site of thrombin. Platelets were treated under identical conditions with AEBSF plus the thrombin substrate CBS 34.47 (7.5 μM) in order to determine if AEBSF remains active in the presence of the polymerizing fibrin-thrombin complex. After 5 minutes incubation, the platelets were pelleted in a microcentrifuge for 4 minutes at 14,000 rpm and the generation of product was monitored at 405 nm. AEBSF inhibited thrombin activity in excess of 90%.

thrombin = assay: Thrombin activity with thrombin substrate CBS 34.47, product monitored at 405 nm; type: biochemical; conditions: in presence of polymerizing fibrin-thrombin complex and platelets; CBS 34.47 7.5 μM; 5 minutes incubation
Method: as §1

human platelets = assay: Platelet aggregation of washed platelets (aggregometer), α-thrombin and other agonists
Method: The requirement of GP Ib for polymerizing fibrin was defined in a series of studies where results were compared with thrombin plus fibrinogen added to platelets versus platelets added to polymerizing fibrin. Washed platelets (50 μl) as a 10× concentrate were added to 0.05 to 0.1 U/ml α-thrombin plus fibrinogen pre-incubated for 2 minutes (polymerizing fibrin) in 430 μl buffer.
Blood was drawn by venopuncture into plastic tubes that contained 1/10 volume 3.8% citrate and platelet-rich plasma (PRP) was prepared in accordance with known techniques (Soslau, G. and J. Giles. 1982. Thrombos. Res. 26:443-455). Blood samples were obtained from healthy donors who were medication free. Washed platelets were prepared from the PRP by known methods (Basheer, A. R. et al. 1995. Biochim. Biophys. Acta 1250:97-109). Briefly, PRP was diluted with 3 volumes of 100 nM citrate buffer (pH 6.0) plus 1 to 2 volumes of hepes Tyrode's buffer (pH 7.4), final volume of 50 ml, and resuspended in hepes Tyrode's buffer with 1 mg/ml dextrose plus 1 mg/ml bovine serum albumin at 2×10^6/μl to 3×10^6/μl (a 10× normal concentration).
Platelet aggregations were performed on a dual-channel Chronolog lumi aggregometer (Chronolog Corp., Havertown, Pa.) by known methods (Soslau, G. et al. 1988. Biochem. Biophys. Res. Commun. 15:909-916). Aggregations were conducted with 480 μl washed platelets or a 50 μl sample of the concentrated platelets added to 430 μl hepes Tyrode's buffer with a final platelet count of 2×0^5/μl to 3×10^5/μl. Agonists and antagonists were added at various concentrations.

platelets [1] = assay: Synergistic platelet aggregation with suboptimal doses of agonists; type: cell-based, human; conditions: PAR1 inactivated
Method: In all cases, the sum of the aggregation induced by the individual agonists at suboptimal concentrations varied between 0 and 15% (agonist concentrations varied between 0.01 and 0.005 U/ml for α-thrombin; 0.1 to 2 nM for γ-thrombin; 0.38 to 0.76 μM for TRAP-1; 175 to 350 μM for TRAP-4). The low dose of α-thrombin employed was below the level required to function at PAR-1 or PAR-4 but adequate to activate GP Ib. TRAP-4 and γ-thrombin appeared to function only at PAR-4.

PAR-1 = PAR-1 (Homo sapiens, UniProt P25116); assay: Platelet aggregation via the PAR-1 pathway (TRAP-1 / rapid onset α-thrombin response); type: cell-based
Sequence of PAR-1 (P25116 22-425): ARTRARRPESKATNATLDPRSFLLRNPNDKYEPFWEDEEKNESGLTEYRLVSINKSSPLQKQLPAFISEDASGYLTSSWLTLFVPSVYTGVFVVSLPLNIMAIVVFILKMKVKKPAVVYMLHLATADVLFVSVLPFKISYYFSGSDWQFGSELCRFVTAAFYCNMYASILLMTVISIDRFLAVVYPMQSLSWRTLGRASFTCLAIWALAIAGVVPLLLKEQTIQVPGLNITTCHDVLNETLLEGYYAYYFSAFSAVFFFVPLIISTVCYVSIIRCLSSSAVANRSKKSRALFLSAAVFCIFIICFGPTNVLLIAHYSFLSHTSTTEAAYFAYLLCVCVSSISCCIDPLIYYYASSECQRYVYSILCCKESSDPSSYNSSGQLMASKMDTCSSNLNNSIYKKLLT
Excerpt: Therefore, GP Ib is the likely candidate.

PAR-4 = molecular target: T1, PAR-4 (Homo sapiens, UniProt Q96RI0); assay: Platelet aggregation via the PAR-4 pathway (TRAP-4 / γ-thrombin); type: cell-based; conditions: SCH203099 5 to 10 μM
T1 sequence (Q96RI0 18-385): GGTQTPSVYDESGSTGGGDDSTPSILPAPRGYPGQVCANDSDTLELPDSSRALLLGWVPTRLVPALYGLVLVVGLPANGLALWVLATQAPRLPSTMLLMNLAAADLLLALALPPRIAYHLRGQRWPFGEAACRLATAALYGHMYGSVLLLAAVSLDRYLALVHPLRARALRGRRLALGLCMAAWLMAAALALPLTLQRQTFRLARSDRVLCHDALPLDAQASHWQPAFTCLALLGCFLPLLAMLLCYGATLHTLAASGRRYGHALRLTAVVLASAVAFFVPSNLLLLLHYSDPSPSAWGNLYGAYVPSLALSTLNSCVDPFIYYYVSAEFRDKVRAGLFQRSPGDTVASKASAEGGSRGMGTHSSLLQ

platelets [2] = assay: Calcium mobilization in Fura-2 loaded platelets; type: cell-based, human; conditions: 10 μM SCH 203099 for one hour
Method: (§2) Further studies were conducted to distinguish between polymerizing fibrin-dependent platelet aggregation versus platelet trapping. True platelet aggregation involves signal transduction, second messenger formation with subsequent mobilization of internal calcium stores and the platelet release reaction. Platelet trapping, in contrast, by polymerizing fibrin would not involve any of these secondary responses. […] The platelet release reaction was monitored by release of dense granule ATP. Here the release reaction was followed simultaneously with aggregation. […] However, conditions that induced platelet adhesion/polymerizing fibrin-trapping were not associated with any ATP release.
The mobilization of internal stores of calcium, [Ca^+2]i, was monitored with a Hitachi F-2000 fluorescence spectrophotometer in the presence of extracellular EGTA to chelate the extracellular Ca^+2 (Soslau, G. et al. 1995. Biochim. Biophys. Acta 1268:73-80). Platelets, as PRP, were pre-loaded with 1 μM Fura-2 AM for 45 to 60 minutes and then washed and resuspended in hepes Tyrode's buffer at a concentration of […]. Samples were incubated at room temperature with or without 10 μM SCH 203099 for one hour prior to analysis. […] Agonists were added through an injection port at various concentrations. Excitation wavelengths were 340 nm and 380 nm and emission was measured at 505 nm. […]

platelets [3] = assay: ATP release (platelet release reaction); type: cell-based, human; conditions: versus corresponding control samples
Method: as §2
The platelet release reaction was monitored simultaneously in some experiments with aggregation per known techniques (Soslau, G. and J. Parker. 1992. Thromb. Res. 66:15-21). The release of dense granule ATP from aggregating platelets was detected as light emission in the Chronolog lumi-aggregometer produced by the reaction of ATP with luciferin catalyzed by luficerase (chrono-lume).

platelets [4] = assay: Platelet aggregation induced by U46619 and ADP; type: cell-based, human
β-thrombin = assay: Sensitivity of β-thrombin to thrombin inhibitors; type: cell-based
α-thrombin = assay: Sensitivity of α-thrombin to thrombin inhibitors; type: cell-based
γ-thrombin = assay: Sensitivity of γ-thrombin to thrombin inhibitors; type: cell-based

NCCc1ccc(S(=O)(=O)F)cc1 [AEBSF]
effect on aggregation, added after formation of the thrombin-fibrin complex but prior to the addition of platelets (GP Ib): did not inhibit | inhibition of thrombin activity (thrombin): > 90% | effect on aggregation, added to thrombin prior to the addition of fibrinogen and platelets (human platelets): completely inhibited

CNc1nc(NC2CC2)nc2ccc3c(ccn3Cc3ccc(C(C)C)cc3)c12 [SCH203099]
response of treated platelets to low dose α-thrombin plus TRAP-4 (platelets [1]): significant response | inhibition of TRAP-1-induced aggregation (PAR-1; SCH203099 5 to 10 μM): completely inhibited | inhibition of platelet activation induced by TRAP-4 (PAR-4; 1 mM TRAP-4): did not inhibit | inhibition of platelet activation induced by γ-thrombin (PAR-4; 10 to 30 nM γ-thrombin): did not inhibit | mobilization of internal calcium in response to TRAP-1 in treated platelets (platelets [2]): only control platelets responded | mobilization of internal calcium in response to α-thrombin in treated platelets (platelets [2]; compared to controls): delayed | ATP release of drug-treated platelets aggregating under conditions dependent on polymerizing fibrin (platelets [3]): equal amounts of ATP release | aggregation profile of preincubated/treated platelets stimulated with α-thrombin (human platelets; relative to controls, ultimately reached a similar level of aggregation): delayed aggregation profile

GPRP
effect on α-thrombin-induced platelet aggregation (human platelets; thrombin plus fibrinogen): no significant effect

RGDS
aggregation with polymerizing γ407 via the GP Ib pathway in the presence of RGDS (GP Ib): at a reduced level | effect on aggregation in the presence of polymerizing fibrin (GP Ib; platelets added to α-thrombin plus fibrinogen pre-incubated 2 minutes): not affected significantly | effect on rapid onset α-thrombin-induced PAR-1 pathway aggregation (PAR-1; for the first few minutes, aggregation then ensued via the GP Ib pathway): inhibited | effect on aggregation via the PAR-1 pathway when γ407 replaced normal fibrinogen (PAR-1; until γ407 began to polymerize): initially blocked | effect on aggregation induced by ADP (platelets [4]): completely blocked | effect on aggregation induced by U46619 (platelets [4]): completely blocked | aggregation in the presence of RGDS without added fibrinogen (human platelets; residual adhering/endogenous fibrinogen only): none occurred

hirudin
effect on aggregation, inhibitor added 2 minutes after fibrinogen was pre-incubated with thrombin, platelets added 30 seconds later (GP Ib; polymerizing fibrin present): prevent aggregation completely | inhibition of β-thrombin (β-thrombin): completely inhibited | inhibition of α-thrombin (α-thrombin): completely inhibited | sensitivity of γ-thrombin to the inhibitor (γ-thrombin): totally insensitive | effect on aggregation, inhibitor added to platelets followed by thrombin plus fibrinogen (human platelets; hirudin 1 to 2 U/ml): completely inhibited
